In patent US20200375987A1, “METALLO-BETA-LACTAMASE INHIBITORS AND METHODS OF USE THEREOF” (priority 2018, published 2020):
In brackets after ≈: the same amount, converted by molar mass.

Legend:
[1] = system: Pseudomonas aeruginosa MB9862 (MB5890 trans pFlp-Vim1 plasmid, efflux−); format: cell-based; settings: MB 5890 trans pFlp-Vim1 plasmid (MB 9862), OprD+
[2] = system: Pseudomonas aeruginosa MB9861 (MB5919 Trans pFlp-Vim1 plasmid, efflux+); format: cell-based; settings: MB5919 Trans pFlp-Vim1 plasmid (MB 9861), OprD+
[3] = system: Pseudomonas aeruginosa MB5890 Trans pFlp-Vim2 plasmid (efflux−); format: cell-based; settings: MB 5890 Trans pFlp-Vim2 plasmid, OprD+
[4] = system: Pseudomonas aeruginosa MB9799 (MB5890 Trans IMP1 plasmid, efflux−); format: cell-based; settings: MB 5890 Trans IMP1 plasmid (MB 9799), OprD+
Source text: (§1) The strain background is Pseudomonas aeruginosa PAO1. A wild-type (MB5919) and an isogenic strain in which multiple efflux pumps have been disrupted genetically were used. The MBL IMP-1, obtained from a clinical isolate was introduced into the strain pair by the following process:
(§2) Plasmid DNA (encoding IMP-1) was extracted from CL 5673 (IMP-1, P. aeruginosa clinical strain) by standard techniques. The plasmid DNA was transformed into parental MB5919 (oprD+, efflux+, inducible AmpC) and MB5890 (oprD+, efflux−, inducible AmpC) isogenic strains by electroporation. These transformed strains were plated onto cation-adjusted Muller-Hinton agar plates containing ceftazidime at 32 μg/mL (MB5919) and 16 μg/mL (MB5890) to select for those cells in which the IMP-1-expressing plasmid was introduced successfully, resulting in resistance to ceftazidime.
(§3) Minimum inhibitory concentrations of sentinel antibiotics were performed to quality control the new strains.

[5] = system: Pseudomonas aeruginosa PAO1 MB5919 (oprD+, efflux+); format: cell-based
Source text: as §1, §2, §3

[6] = system: Pseudomonas aeruginosa MB5890 (oprD+, efflux−); format: cell-based; settings: MB 5890, OprD+
Source text: as §1, §2, §3

[7] = system: Pseudomonas aeruginosa MB9798 (MB5919 Trans IMP1 plasmid, efflux+); format: cell-based; settings: MB5919 Trans IMP1 plasmid (MB 9798), OprD+
Source text: as §1, §2, §3

[8] = system: Pseudomonas aeruginosa MB5919 Trans pFlp-Vim2 plasmid (efflux+); format: cell-based; settings: MB 5919 Trans pFlp-Vim2 plasmid, OprD+
VIM-2 = VIM-2 (Escherichia coli, UniProt Q5U7L7); test: Enzyme activity: determination of IC50 (VIM-2); format: biochemical; settings: read-out: VIM2 IC50
IMP-1 = IMP-1 (Serratia marcescens, UniProt P52699); test: Enzyme activity: determination of IC50, fluorescence assay with CCF2-FA substrate (IMP-1); format: biochemical; settings: 2 pM enzyme, 1.25 μM CCF2-FA, 2 hours at 25° C.; read-out: IMP1 IC50
Chain of IMP-1 (P52699 19-246, looked up, species assumed): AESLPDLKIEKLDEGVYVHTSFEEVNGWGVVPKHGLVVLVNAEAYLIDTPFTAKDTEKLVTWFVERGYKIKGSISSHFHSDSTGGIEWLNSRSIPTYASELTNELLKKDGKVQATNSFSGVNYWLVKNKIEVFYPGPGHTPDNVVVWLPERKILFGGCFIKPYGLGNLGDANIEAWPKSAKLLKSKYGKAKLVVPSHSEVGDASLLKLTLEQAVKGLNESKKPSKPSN
Outline: (§4)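 Metallo-β-lactamase activity read by fluorescence against CCF2-FA (1.25 μM final) in 100 mM KH2PO4 pH 7 with 0.005% Tween-20 and 10 μM ZnSO4; enzyme final at 1 pM NDM-1, 2 pM IMP-1 or 30 pM VIM-1. Inhibitor at 20 to 0.00063 μM, 2 h at 25° C; IC50 by 4-parameter fit.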

VIM-1 = VIM-1 (Pseudomonas aeruginosa, UniProt A0A0F7KYQ8); test: Enzyme activity: determination of IC50, fluorescence assay with CCF2-FA substrate (VIM-1); format: biochemical; settings: 30 pM enzyme, 1.25 μM CCF2-FA, 2 hours at 25° C.; read-out: VIM1 IC50
Outline: as §4

[9] = system: P. aeruginosa MB9798 (efflux WT, IMP-1); test: Efflux: concentration of MBL inhibitor restoring susceptibility to imipenem (MITC95), efflux+ strain; format: cell-based, Pseudomonas aeruginosa; settings: imipenem at 2 μg/mL in the presence of a class A, C, D serine β-lactamase inhibitor closely related to relebactam
Outline: (§5)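 Isogenic P. aeruginosa PAO1 strains, efflux+ and efflux−, transformed with IMP-1 plasmid, were tested by microbroth MIC with fixed imipenem, usually at CLSI breakpoint, plus fixed class A/C β-lactamase inhibitor against AmpC. MBL inhibitor was serially titrated; the concentration restoring susceptibility was recorded.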

NDM-1 = NDM-1 (Klebsiella pneumoniae, UniProt C7C422); test: Enzyme activity: determination of IC50, fluorescence assay with CCF2-FA substrate (NDM-1); format: biochemical; settings: 1 pM enzyme, 1.25 μM CCF2-FA, 2 hours at 25° C.; read-out: NDM1 IC50
Chain of NDM-1 (C7C422 29-270, looked up, species assumed): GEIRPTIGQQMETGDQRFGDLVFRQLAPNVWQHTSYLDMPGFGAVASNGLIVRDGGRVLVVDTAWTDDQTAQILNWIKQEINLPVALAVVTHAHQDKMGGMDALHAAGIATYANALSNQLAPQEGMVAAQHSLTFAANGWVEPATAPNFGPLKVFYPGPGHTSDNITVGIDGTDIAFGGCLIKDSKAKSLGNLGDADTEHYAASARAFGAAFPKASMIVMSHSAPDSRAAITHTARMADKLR
Outline: as §4

[10] = system: P. aeruginosa MB9799 (efflux mutant, IMP-1); test: Efflux: concentration of MBL inhibitor restoring susceptibility to imipenem (MITC95), efflux− strain; format: cell-based, Pseudomonas aeruginosa; settings: imipenem at 2 μg/mL in the presence of a class A, C, D serine β-lactamase inhibitor closely related to relebactam
Outline: as §5

[11] = system: Klebsiella pneumoniae expressing VIM-1 (IHMA599644); test: Antibiotic potentiation activity: synergistic concentration (MITC95) with imipenem; format: cell-based; settings: imipenem 1 μg/mL; lowest concentration inhibiting 95% of growth; 35° C., 22-24 hours
Outline: (§6)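 Clinical MBL-expressing strains diluted into 1.1× CAMHB were incubated with compound plus imipenem at 1 μg/mL for 22–24 h at 35 °C, then absorbance was read. MITC95 is the lowest compound concentration giving 95% growth inhibition in the presence of imipenem.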

[12] = system: Serratia marcescens expressing IMP-1 (CL5741); test: as above; format: cell-based; settings: imipenem 1 μg/mL; lowest concentration inhibiting 95% of growth; 35° C., 22-24 hours
Outline: as §6

[13] = system: Escherichia coli expressing NDM-1 (CLB30016); test: as above; format: cell-based; settings: imipenem 1 μg/mL; lowest concentration inhibiting 95% of growth; 35° C., 22-24 hours
Outline: as §6

CC[C@H]1OC(=O)[C@H](C)[C@@H](O[C@H]2C[C@@](C)(OC)[C@@H](O)[C@H](C)O2)[C@H](C)[C@@H](O[C@@H]2O[C@H](C)C[C@H](N(C)C)[C@H]2O)[C@](C)(O)C[C@@H](C)CN(C)[C@H](C)[C@@H](O)[C@]1(C)O [Azithromycin]
MIC [1]: 1 µg/mL (≈ 1.34 µM)
MIC [2]: 32 µg/mL (≈ 42.7 µM)
MIC [3]: 1 µg/mL (≈ 1.34 µM)
MIC [4]: 2 µg/mL (≈ 2.67 µM)
MIC [5]: 16 µg/mL (≈ 21.4 µM)
MIC [6]: 1 µg/mL (≈ 1.34 µM)
MIC [7]: 2 µg/mL (≈ 2.67 µM)
MIC [8]: 32 µg/mL (≈ 42.7 µM)

CC(C)(O/N=C(\C(=O)N[C@@H]1C(=O)N2C(C(=O)[O-])=C(C[n+]3ccccc3)CS[C@H]12)c1csc(N)n1)C(=O)O [CAZ, ceftazidime]
MIC [1]: > 256 µg/mL
MIC [2]: > 256 µg/mL
MIC [3]: 64 µg/mL (≈ 117 µM)
MIC [4]: 256 µg/mL (≈ 468 µM)
MIC [5]: 1 µg/mL (≈ 1.83 µM)
MIC [6]: 0.5 µg/mL (≈ 0.915 µM)
MIC [7]: 256 µg/mL (≈ 468 µM)
MIC [8]: 128 µg/mL (≈ 234 µM)

O=C(N[C@H](CO)[C@H](O)c1ccc([N+](=O)[O-])cc1)C(Cl)Cl [Chloramphenicol]
MIC [1]: 2 µg/mL (≈ 6.19 µM)
MIC [2]: > 64 µg/mL
MIC [3]: 1 µg/mL (≈ 3.09 µM)
MIC [4]: 1 µg/mL (≈ 3.09 µM)
MIC [5]: > 64 µg/mL
MIC [6]: 1 µg/mL (≈ 3.09 µM)
MIC [7]: > 64 µg/mL
MIC [8]: > 64 µg/mL

NC[C@@H](O)CNS(=O)(=O)c1ccc(-n2ccnc2)c(-c2nn[nH]n2)c1S(N)(=O)=O [Example 41, (R)—N1-(3-amino-2-hydroxypropyl)-4-(1H-imidazol-1-yl)-3-(2H-tetrazol-5-yl)benzene-1,2-disulfonamide]
IC50 (VIM-2): 0.96 nM
IC50 (IMP-1): 2.97 nM
IC50 (VIM-1): 1.05 nM
MB9798 MITC95 P. aeruginosa Efflux WT [9]: 1.56 µM
IC50 (NDM-1): 0.66 nM
MB9799 MITC95 P. aeruginosa Efflux Mutant [10]: 0.78 µM
IHMA599644 K.pneumoniae MITC95 uM VIM [11]: 1.56 µM
CL5741 S.marcescens MITC95 uM IMP [12]: 0.78 µM
CLB30016 E.coli MITC95 NDM [13]: 0.78 µM

C[C@@H](O)[C@H]1C(=O)N2C(C(=O)O)=C(SCCN=CN)C[C@H]12 [Imipenem]
MIC [1]: 64 µg/mL (≈ 214 µM)
MIC [2]: > 64 µg/mL
MIC [3]: 32 µg/mL (≈ 107 µM)
MIC [4]: 32 µg/mL (≈ 107 µM)
MIC [5]: 4 µg/mL (≈ 13.4 µM)
MIC [6]: 2 µg/mL (≈ 6.68 µM)
MIC [7]: 64 µg/mL (≈ 214 µM)
MIC [8]: > 64 µg/mL

C[C@@H](O)[C@H]1C(=O)N2C(C(=O)O)=C(S[C@@H]3CN[C@H](C(=O)N(C)C)C3)[C@H](C)[C@H]12 [Meropenem]
MIC [1]: 64 µg/mL (≈ 167 µM)
MIC [2]: > 64 µg/mL
MIC [3]: 32 µg/mL (≈ 83.4 µM)
MIC [4]: 64 µg/mL (≈ 167 µM)
MIC [5]: 2 µg/mL (≈ 5.22 µM)
MIC [6]: 0.5 µg/mL (≈ 1.3 µM)
MIC [7]: > 64 µg/mL
MIC [8]: > 64 µg/mL

CCN1CCN(C(=O)N[C@@H](C(=O)N[C@@H]2C(=O)N3[C@@H]2SC(C)(C)[C@@H]3C(=O)O)c2ccccc2)C(=O)C1=O [Pipercillin]
MIC [1]: 128 µg/mL (≈ 247 µM)
MIC [2]: > 256 µg/mL
MIC [3]: 128 µg/mL (≈ 247 µM)
MIC [4]: 4 µg/mL (≈ 7.73 µM)
MIC [5]: 2 µg/mL (≈ 3.86 µM)
MIC [6]: 1 µg/mL (≈ 1.93 µM)
MIC [7]: 4 µg/mL (≈ 7.73 µM)
MIC [8]: > 256 µg/mL
